Test results reported in US6403574B1, “Azetidinecarboxamide derivatives for treating CNS disorders” (Vernalis Research Limited, priority 1998, dated 2002).

Legend:
GABAA receptor = experiment: Binding affinity to the GABAA receptor with [35S]-TBPS; conditions: membranes from rat fore-brain; [35S]-TBPS 1 nM; read-out: IC50, concentration required to displace 50% of the specific [35S]-TBPS binding
Protocol: Measurement of Binding Affinity to the GABAA Receptor with [^35S]-TBPS
The ability of test compounds to bind to the GABAA receptor was measured in membranes prepared from rat fore-brain using the procedure described by Green et al (Green, A. R., Misra, A., Murray, T. K., Snape, M. F. & Cross, A. J. Neurophamacology, 1996, 35, 1243-1250).
Binding assays were performed in plastic microtitre plates. In each study total assay volume contained [^35S]-TBPS (1 nM final concentration), membrane preparation and displacing drugs where appropriate. Drug solutions were prepared at a concentration of 10 mM in an appropriate solvent (EtOH, DMSO or H2O) and then diluted with assay buffer. Non-specific binding was determined using GABA. The free ligand concentration was determined by counting aliquots of the [^35S]-TBPS solution. The concentration of test compounds required to displace 50% of the specific binding (IC50) was determined from displacement curves.

[1] = tested on: 3-MPA-induced seizures in T/O strain mice; experiment: Antagonism of 3-MPA-induced seizures; format: in vivo, mouse; conditions: test drug 30 mg/kg p.o. 60 min before 3-MPA i.v.
Protocol: Antagonism of 3-MPA-Induced Seizures Several animal seizure models are available for the screening and characterisation of anticonvulsant (antiepileptic) drugs. Most models employ a chemical convulsant to induce seizures and the anticonvulsant potencies of novel compounds are measured in terms of their ability to increase the dose of convulsant required to induce a seizure response (or to prolong the latency to seizure onset following a bolus dose of the convulsant). Most chemical convulsants work by blocking the neurotransmitter function of gamma-aminobutyric acid (GABA), the predominant inhibitory neurotransmitter in the mammalian brain. This can be achieved by blocking the postsynaptic action of GABA using pentylenetetrazol or bicuculline, or via a presynaptic action using a GABA synthesis inhibitor to decrease GABA release into the synapse. In this case, the inhibitor of glutamate decarboxylase (GAD), 3-mercaptopropionic acid (3-MPA), was used as the convulsant challenge agent. […] Male albino T/O strain mice (obtained from Tuck) weighing 28-40 g were used in these studies. Animals were assigned randomly to treatment groups and vehicle or test drug (at a dose of 30 mg/kg) were administered p.o. to groups of 12 animals 60 min before the administration of a bolus dose of 3-MPA intravenously. Immediately following 3-MPA administration, each mouse was placed individually into a cage for observation. The seizure response of each animal was scored quantally as present or absent (response or non-response) during the 5 min period immediately following 3-MPA administration. A seizure response was defined as the onset of the initial clonic phase of the seizure (abrupt loss of righting reflex accompanied by vocalisation). The seizure threshold (in terms of mg/kg i.v. of 3-MPA required to evoke a seizure response) was determined in each treatment group by a sequential up/down method followed by modified probit analysis of the quantal data. A range of doses of 3-MPA was prepared (12.5-200.0 mg/kg i.v.) increasing by a constant geometric factor […], which was found in pilot studies to generate suitable data for analysis by this method. In these studies, 3-MPA was obtained from Sigma. Test compounds were prepared as solutions dissolved in 45% w/v aqueous 2-hydroxypropyl-β-cyclodextrin. 3-MPA was dissolved in isotonic saline and its pH adjusted to 6 using 1M sodium hydroxide solution. Drugs were administered in a dose volume of 10 ml/kg body weight. SC=seizure threshold after treatment with test drug SV=seizure threshold in vehicle treated group

[2] = tested on: elevated zero-maze model of anxiety; experiment: Anxiolytic activity in the elevated zero-maze model; format: in vivo, rat; conditions: dose of 30 mg/Kg, orally 1 hour prior to zero-maze testing
Source text: Measurement of Anxiolytic Activity in Mice Using the Elevated Zero-maze Model
Food and water are made freely available.
The maze is cleaned with a 5% methanol/water solution and dried thoroughly between test sessions.

Row | Structure (SMILES) | melting point [°C] | other results
1 | C=CCNC(=O)N1CC(OCc2ccc(C(F)(F)F)cc2)C1 [Example 4, 3-(4-(Trifluoromethyl)benzyloxy)-N-(2-propenyl)azetidine-1-carboxamide] | 120 | IC50 (GABAA receptor): 91 µM; SC = seizure threshold after treatment with test drug [1]: 75.7 mg/kg i.v. of 3-MPA
2 | C=CCNC(=O)N1CC(OCc2cccc(F)c2)C1 [Example 15] | 59 to 60 | –
3 | C[C@H](O)CNC(=O)N1CC(OCc2cccc(C(F)(F)F)c2)C1 [Example 18] | 67 to 68 | –
4 | C[C@@H](O)CNC(=O)N1CC(OCc2ccc(C(F)(F)F)cc2)C1 [Example 20] | 97 to 98 | –
5 | C=CCNC(=O)N1CC(OCc2ccc(F)cc2)C1 [Example 5, 3-(4-Fluorobenzyloxy)-N-(2-propenyl)azetidine-1-carboxamide] | – | SC = seizure threshold after treatment with test drug [1]: 42.8 mg/kg i.v. of 3-MPA
6 | C[C@H](O)CNC(=O)N1CC(OCc2ccc(Cl)c(Cl)c2)C1 [Example 23] | 88 to 89 | –
7 | C[C@@H](O)CNC(=O)N1CC(OCc2ccc(F)cc2)C1 [Example 40] | 72 to 73 | –
8 | C=CCNC(=O)N1CC(OCc2ccc3ccccc3c2)C1 [Example 12] | 141 to 142 | –
9 | C[C@H](O)CNC(=O)N1CC(OCc2ccc(C(F)(F)F)cc2)C1 [Example 21] | 97 to 98 | –
10 | CCCNC(=O)N1CC(OCc2cccc(C(F)(F)F)c2)C1 [Example 17] | 62 to 63 | –
11 | C=CCNC(=O)N1CC(OCc2ccccc2)C1 [Example 26] | 76 to 77 | –
12 | C[C@H](O)CNC(=O)N1CC(OCc2ccc(F)cc2)C1 [Example 27] | 73 to 74 | –
13 | C=CCNC(=O)N1CC(OCc2cc(F)ccc2F)C1 [Example 29] | 75 | –
14 | C#CCNC(=O)N1CC(OCc2ccc(Cl)cc2)C1 [Example 37] | 123 to 124 | –
15 | C=CCNC(=O)N1CC(OCc2ccc(F)c(F)c2)C1 [Example 33] | 82.5 to 85 | –
16 | C=CCNC(=O)N1CC(OCc2ccc(C#N)cc2)C1 [Example 10] | 95 to 96 | –
17 | CCCNC(=O)N1CC(OCc2ccc(C(F)(F)F)cc2)C1 [Example 16] | 128 to 129 | –
18 | C[C@@H](O)CNC(=O)N1CC(OCc2ccc(Cl)c(Cl)c2)C1 [Example 22] | 88 to 89 | –
19 | C=CCNC(=O)N1CC(OCc2ccc(F)cc2F)C1 [Example 34] | 91 to 92.5 | –
20 | CCCNC(=O)N1CC(OCc2ccc(Cl)c(Cl)c2)C1 [Example 13] | 89 to 90 | –
21 | C#CCNC(=O)N1CC(OCc2ccc(C(C)(C)C)cc2)C1 [Example 38] | 94 to 96 | –
22 | C=CCNC(=O)N1CC(OCc2ccc(-c3ccccc3)cc2)C1 [Example 11] | 160 | –
23 | C[C@@H](O)CNC(=O)N1CC(OC(c2ccc(Cl)cc2)c2ccc(Cl)cc2)C1 [Example 7, (R)-3-(Bis(4-chlorophenyl)methoxy)-N-(2-hydroxypropyl)azetidine-1-carboxamide] | – | IC50 (GABAA receptor): 32 µM
24 | C=CCNC(=O)N1CC(OC(c2ccc(Cl)cc2)c2ccc(Cl)cc2)C1 [Example 6, 3-(Bis(4-chlorophenyl)methoxy)-N-(2-propenyl)azetidine-1-carboxamide] | – | IC50 (GABAA receptor): 64 µM

Further lines, with some results ahead:

Row | melting point [°C] | Structure (SMILES) | other results
25 | 80.5 to 81.5 | C=CCNC(=O)N1CC(OCc2cc(C(F)(F)F)cc(C(F)(F)F)c2)C1 [Example 35] | –
26 | 79 | C=CCNC(=O)N1CC(OCc2cc(F)cc(F)c2)C1 [Example 31] | –
27 | 63 | C=CCNC(=O)N1CC(OCc2ccccc2C(F)(F)F)C1 [Example 28] | –
28 | 79 to 80 | C=CCNC(=O)N1CC(OCc2ccc(C(C)(C)C)cc2)C1 [Example 41] | –
29 | 94 to 96 | C#CCNC(=O)N1CC(OCc2ccc(F)cc2)C1 [Example 43] | –
30 | 76 to 78 | C[C@H](O)CNC(=O)N1CC(OCc2ccc(Cl)cc2)C1 [Example 36] | –
31 | 100 | C=CCNC(=O)N1CC(OCc2ccc(Cl)cc2Cl)C1 [Example 30] | –
32 | 85 to 86 | C[C@H](O)CNC(=O)N1CC(OCc2ccc(Cl)cc2)C1 [Example 24] | –
33 | 67 to 68 | C=CCNC(=O)N1CC(OCc2cccc(Cl)c2)C1 [Example 14] | –
34 | 90 to 91 | C#CCNC(=O)N1CC(OCc2cccc(C(F)(F)F)c2)C1 [Example 25] | –
35 | 67 to 68 | C[C@@H](O)CNC(=O)N1CC(OCc2cccc(C(F)(F)F)c2)C1 [Example 19] | –
36 | 110 to 111 | C=CCNC(=O)N1CC(OCc2ccc(Cl)cc2)C1 [Example 1, 3-(4-Chlorobenzyloxy)-N-(2-propenyl)azetidine-1-carboxamide] | SC = seizure threshold after treatment with test drug [1]: 35.98 mg/kg i.v. of 3-MPA; Anxiolytic activity (increase in the frequency of head dips) [2]: effective
37 | 88 to 89 | C=CCNC(=O)N1CC(OCc2ccc(Cl)c(Cl)c2)C1 [Example 2, 3-(3,4-Dichlorobenzyloxy)-N-(2-propenyl)azetidine-1-carboxamide] | IC50 (GABAA receptor): 56 µM; SC = seizure threshold after treatment with test drug [1]: 66.7 mg/kg i.v. of 3-MPA
38 | 108 | C=CCNC(=O)N1CC(OCc2cccc(C(F)(F)F)c2)C1 [Example 3, 3-(3-(Trifluoromethyl)benzyloxy)-N-(2-propenyl)azetidine-1-carboxamide] | IC50 (GABAA receptor): 87 µM; SC = seizure threshold after treatment with test drug [1]: 129.3 mg/kg i.v. of 3-MPA
